# Test results from US20160216351A1, “METHOD FOR DETECTING OXIDATION/REDUCTION REACTION IN VIVO” (KYUSHU UNIVERSITY, NATIONAL UNIVERSITY CORPORATION, priority 2013, published 2016).
# Legend:
# [1] = system: mitochondria collected from a rat; test: ReMI metabolic imaging in the presence of mitochondria (phantom tubes); format: in vitro ADME; settings: mitochondria fractions of various concentrations
# Procedure: The ReMI experiment was conducted by using a DNP-MRI system manufactured at Kyushu University. The DNP-MRI system was constituted by using an external magnet for an EPR device (JES-ES20, JEOL Ltd.) and two axis field gradient coils for CW-EPR imaging. A resonator was constituted of a surface coil for ESR irradiation, an NMR cross coil within a saddle, and a solenoid for transmission and signal reception. An ESR irradiation coil was disposed between two NMR coils. […] A surface coil (diameter: 20 mm) was used for ESR irradiation, and an NMR coil assembly was constituted of an NMR transmission saddle coil (90 mm i.d., 175 mm in length) and a solenoid reception coil (40 mm i.d., 60 mm in length) having a bandwidth of 1 kHz. The maximum transmission power was 100 W. The ReMI experiment was conducted by a spin echo method. The ReMI experiment was conducted under the following conditions: EPR irradiation power, 12 W; flip angle, 90 degrees; TEPR×repetition time (TR)×echo time (TE)=500×1000×40 ms; average number=1; slice thickness, 30 mm; and a 64-phase modulation step. For the image field (32×32 mm), 64×64 matrix was used.
# To a phantom tube filled with mitochondria collected from a rat was added FADH or CoQ0H in an experiment. […] The metabolic rates (decreasing rates) of FADH and CoQ0H were calculated from changes in the first four image intensities after the reaction with mitochondria.
# C57BL6 mice = test: Metabolic imaging in mice using sequential ReMI; format: in vivo
# Text: Female C57BL6 mice (5 weeks old) were purchased from Japan SLC, Inc. (Hamamatsu, Japan) and acclimated for one week before the experiment. Mice were 6 to 8 weeks old at the time of the experiment (body weight: 20-30 g), and five mice were kept in each cage in a room that was adjusted to a 24-hour cycle rhythm, wherein the temperature and moisture of the room were also adjusted. Food and water were given ad libitum. All the procedures and animal care were approved by the Animal Experiment Ethics Committee of Kyushu University and carried out in accordance with guidelines for animal experiments established by Kyushu University.
# Mice were anesthetized with 2% isoflurane in the FADH experiment or with urethane (2 g/kg) in the CoQ0H experiment and immobilized with a skin adhesive tape, wherein the stomach was placed to the lower side. During the experiment, the temperature of mice was kept at 37+/−1° C. with a warm current of air. Subsequently, mice were placed in a resonator and ReMI measurement was started. ReMI images of the lower abdominal region were examined after administering an 8 mM CoQ0 alkaline solution (800 μL) to the rectum or administering an FAD/NADH solution intramuscularly.
# ReMI images were obtained by using a DNP-MRI system manufactured at Kyushu University in an experiment using FADH and a Philips prototype system in an experiment using CoQ0. The ReMI experiment was conducted using the abovementioned parameters. Radical metabolic images (redox maps) were obtained by calculating changes in ReMI intensity in each pixel among the first four ReMI images (from a semi-logarithmic plot line of each pixel on sequential images).
substance,measurement,setting,value
FADH,redox map (intensity declining speed),[1]; calculated from first four image intensities,no change
same,change in ReMI image intensity over time after reaction with mitochondria,"[1]; images every two minutes, EPR irradiation 572.5 MHz",no reaction with mitochondria
same,distribution in fusion images of MRI and ReMI,"C57BL6 mice; FADH intramuscular, CoQ0H rectal",site-specifically distributed in the legs
same,pharmacokinetic map (decreasing rate),C57BL6 mice; calculated from first four ReMI images,constant
same,metabolism in the muscle by ReMI scanning,C57BL6 mice; intramuscular administration,metabolized slowly
same,ReMI image intensity during the test period,"C57BL6 mice; intramuscular administration in both legs, imaging every two minutes, 14 minutes",stable
